# Bridges are numbered along the chain shown (N, C = ends). Where no end group is shown, it is not given here.
# Assays:
# [1] = Gut enzyme digestion, M. sexta gut extract; format: in vitro ADME, Manduca sexta; conditions: M. sexta fifth instar gut extract diluted 10× in 30 mM Tris–HCl pH 8.8, 0.5–1 mg mL^−1 peptide, HPLC, single exponential decay fit
# Procedure: (§1) Larvae of H. zea, Spodoptera frugiperda Smith and Abbot, 1797, and Trichoplusia ni Hubner, 1802 were purchased from Benzon Research and reared to fifth instar on general purpose lepidopteran diet. Manduca sexta L. were purchased from Carolina Biological Supply (Burlington, NC) and reared to fifth instar on the supplied diet. Larvae were anesthetized on ice for 30 min, pinned on a dissection plate, and opened laterally with microdissection scissors. The foregut, midgut and hindgut were excised and washed using sterile water to remove any excess hemolymph and then transferred into a chilled 2‐mL microcentrifuge tube. The extracts were spun in a microcentrifuge at 10000 g to pellet the solids. The liquid fractions were carefully removed, sterile filtered, and stored at −80°C for future use.
# (§2) For gut enzyme digestion studies, gut extract was diluted 10× with the dilution buffer (30 mM Tris–HCl, pH 8.8) and 0.5–1 mg mL^−1 of Ta1b. Samples were taken from the digestion mixture at defined timepoints and mixed with a 1:6 ratio of stop buffer (Tris–HCl pH 1–2) to halt further digest of the peptide. Samples were sterile filtered and analyzed by HPLC to determine peptide integrity and concentration.
# [2] = Gut enzyme digestion, S. frugiperda gut extract; format: in vitro ADME, Spodoptera frugiperda; conditions: pH 8.8; extract diluted ten-fold, single exponential decay fit, HPLC; read-out: Degradation half-life in S. frugiperda gut extract
# Procedure: as §1, §2
# [3] = Gut enzyme digestion, stated jointly for three lepidopteran gut extracts; format: in vitro ADME, H. zea, S. frugiperda, T. ni; conditions: 10‐fold diluted gut extract, single exponential decay, followed up to 21 h
# Procedure: as §1, §2
# Helicoverpa zea = assay: Insecticidal activity by injection into fourth instar larvae; format: in vivo
# Procedure: Helicoverpa zea (Boddie, 1850) larvae were reared from eggs (Benzon, Carlisle, PA) to fourth instar on general purpose lepidopteran diet (F9772, Frontier Agricultural Sciences, Newark, DE). Pre‐weighed larvae immobilized on ice were injected into their penultimate proleg as described for M. domestica with 1 μL solution and eight larvae per treatment in at least triplicate. After injection, larvae were placed in a well of a 32‐well tray filled with 5 mL lepidopteran diet. The trays were then placed in an incubator at 28° C with 16:8 h light: dark cycle and evaluated 24 h after injection for mortality.
# (§3) To compare the potency of Ta1b, we also injected the following active ingredients into M. domestica and H. zea: GS‐ω/κ (Spear, Vestaron), spinosad (Monterey Garden Insect Spray, Monterey), thiamethoxam (Optigard® Flex, Syngenta), and chlorantraniliprole (ALTACOR®, FMC).
# bovine trypsin = biological target: T1, bovine trypsin (Bos taurus, UniProt P00760); assay: Protease stability, commercial trypsin digestion; format: in vitro ADME; conditions: pH 8.8, room temperature, HPLC chromatogram
# T1 construct: purchased Sigma-Aldrich
# T1 sequence (P00760 24-246): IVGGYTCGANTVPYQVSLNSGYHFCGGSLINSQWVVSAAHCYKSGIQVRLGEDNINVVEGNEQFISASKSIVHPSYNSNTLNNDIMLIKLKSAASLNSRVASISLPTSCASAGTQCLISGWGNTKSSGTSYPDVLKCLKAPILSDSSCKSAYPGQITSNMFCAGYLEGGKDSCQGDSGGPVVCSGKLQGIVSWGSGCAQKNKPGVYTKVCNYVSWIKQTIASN
# Procedure: (§4) For commercial enzyme digestion studies, bovine trypsin (Sigma‐Aldrich, St. Louis, MO) was prepared at a concentration of 1 mg mL^−1 in 50 mM Tris–HCl pH 8.8, 100 mM NaCl. Bovine chymotrypsin (Sigma‐Aldrich) was prepared at a concentration of 1 mg ml^−1 in 50 mM MES pH 6.0, 100 mM NaCl. For each digestion condition, 5 μL of trypsin or chymotrypsin solution were added to 200 μL of 10.7 mg mL^−1 peptide and incubated at room temperature. Samples were taken at defined timepoints, sterile filtered, and analyzed immediately by HPLC.
# [4] = Protease stability, commercial trypsin digestion; format: in vitro ADME, bovine; conditions: bovine trypsin 1 mg mL^−1 in 50 mM Tris–HCl pH 8.8, 100 mM NaCl; 5 μL added to 200 μL of 10.7 mg mL^−1 peptide; room temperature; HPLC; read-out: Degradation half life, Trypsin
# Procedure: as §4
# [5] = Circular dichroism thermal denaturation; format: physicochemical; conditions: CD ellipticity at 220 nm, 0.4–0.6 mg mL^−1 peptide in 10 mM sodium phosphate pH 7.0, 2°C min^−1 up to 95°C, Boltzmann sigmoidal fit, 3–4 replicates
# Procedure: Thermal denaturation profiles were collected on a Jasco‐J1500 CD spectrophotometer in a 0.2‐cm cuvette at a peptide concentration of 0.4–0.6 mg mL^−1 in 10 mM sodium phosphate, pH 7.0. Ellipticity was monitored at 220 nm every 1°C up to 95°C at a rate of 2°C min^−1. Denaturation curves were fitted with a Boltzmann sigmoidal function (GraphPad Prism) to determine the melting point (T m) for a single replicate. 3–4 replicates were run and the calculated T m values of each variant peptide was tested for a statistically significant difference relative to the rTa1b peptide or Ta1b‐QA commercial peptide, as appropriate, using an unpaired, two‐tailed, heteroscedastic student t's test (Microsoft Excel, Redmond, WA).
# [6] = Gut enzyme digestion, H. zea gut extract; format: in vitro ADME, Helicoverpa zea; conditions: pH 8.8; extract diluted ten-fold, single exponential decay fit, HPLC; read-out: Degradation half-life in H. zea gut extract
# Procedure: as §1, §2
# [7] = Gut enzyme digestion, T. ni gut extract; format: in vitro ADME, Trichoplusia ni; conditions: pH 8.8; extract diluted ten-fold, single exponential decay fit, HPLC; read-out: Degradation half-life in T. ni gut extract
# Procedure: as §1, §2
# H. zea neonates = assay: Insecticidal activity by foliar spray (lettuce leaf disk feeding); format: in vivo, Helicoverpa zea
# Procedure: Organic romaine lettuce was cut into 30‐mm diameter disks and sterilized with a 140‐ppm bleach solution followed by a triple rinse in water. The lettuce disks were then sprayed on either side using a Potter Tower Sprayer (Burkard, Rickmansworth, England) with insecticidal solutions, allowing them to dry between sprays. Once fully sprayed and dried, disks were placed into an arena, which was a 32‐well rearing tray containing 5 mL of 1% w/v agar. One leaf disk was placed in each well and a single neonate H. zea was applied to each of the 12 leaf discs per treatment with four experimental replicates per treatment. The trays were then placed in a 28° C incubator with a 16:8 h light: dark cycle. Mortality was evaluated 4 days after application.
# Musca domestica = assay: Insecticidal activity by injection into adult house flies; format: in vivo
# Procedure: Adult house flies (Musca domestica L.) were immobilized with CO2 gas and those with an average weight of 12–18 mg were selected for injection. Purified solutions of Ta1b and variants were diluted in water and injected into the dorsal thorax with a 1‐cc syringe and 30‐gauge needle using a hand microapplicator (Burkard, Rickmansworth, England). Each adult was injected with 0.5 μL of solution with 10 flies per treatment in at least triplicate. Water was used as a negative control. Flies were placed into a container with moist filter paper and scored for mortality 24 h post‐injection. Ten non‐injected flies were placed in a container to assess CO2 mortality. Response curves were fitted with a four‐parameter sigmoidal function (GraphPad Prism, Boston, MA) to determine LD50 values.
# as §3
# [8] = injection, Supplementary Figure 4
# [9] = injection, Supplementary Table 1
sequence,measurement,setting,value
"EPDEICRARMTNKEFTYKSNVCNNCGDQVAACEAECFRNDVYTACHEAQKG (disulfide 6-36, 22-32, 25-45) [Ta1b]","Degradation half life, Gut extract",[1],under 2 min
same,half-life,"[1]; read-out: Degradation half life, Gut extract",1.4 min
same,half-life,[2],26.4 min
same,"Degradation half‐lives in gut extracts from H. zea, S. frugiperda, and T. ni",[3],0.5 to 2 h
same,"Insecticidal LD50, injection, H. zea (95% CI)","Helicoverpa zea; fourth instar larvae, 1 μL into penultimate proleg, mortality 24 h after injection, eight larvae per treatment, at least triplicate",2.4 (1.7–3.4) nmol g^−1
same,LD50 against H. zea,Helicoverpa zea; [8],2560 pmol/g
same,H. zea LD50 (95%CI),Helicoverpa zea; [9],2.4 (1.7-3.4) pmol/g
same,Digestion by bovine trypsin (HPLC),bovine trypsin,resulted in digestion of the peptide
same,half-life at 10.4 mg mL^-1,[4],288 min
same,Melting temperature Tm (± SEM),[5],73.7 ± 0.4 °C
same,half-life,[6],118 min
same,half-life,[7],38.1 min
same,"Day 4 mortality of H. zea on treated lettuce leaves, peptide alone","H. zea neonates; 100 μg cm^−2, neonates, compared to untreated",no activity
same,"Day 4 mortality of H. zea on treated lettuce leaves, peptide in combination with Btk","H. zea neonates; 100 μg cm^−2 peptide with sublethal Btk 0.17 μg cm^−2, neonates",no activity
same,"Insecticidal LD50, injection, M. domestica (95% CI)","Musca domestica; adult house flies 12–18 mg, 0.5 μL into dorsal thorax, mortality 24 h post‐injection, 10 flies per treatment, at least triplicate, four‐parameter sigmoidal fit",0.27 (0.23–0.32) nmol g^−1
same,LD50 against house flies,Musca domestica; [8],310 pmol/g
same,Housefly LD50 (95%CI),Musca domestica; [9],0.27 (0.23-0.32) pmol/g

# Source: paper PMC12441774, “Proteolytic stabilization of a spider venom peptide results in an orally active bioinsecticide” (Pest Management Science, 2025)
